Assays:
[1] = system: AAVS1; test: CAR insertion efficiency at AAVS1 in primary T-cells; assay type: cell-based, human
Procedure: T-cells were isolated from human peripheral blood obtained from healthy adults by immune-magnetic negative selection using the EasySep Human T-cell Isolation Kit ([sequence] Technologies). After isolation, T-cells were activated in 25 μL mL^−1 ImmunoCult Human CD3/CD28/CD2 T-Cell Activator ([sequence] Technologies) in ImmunoCult-XF T-Cell Expansion Medium ([sequence] Technologies) containing 12.5 ng mL^−1 Human Recombinant IL-2, 5 ng mL^−1 IL-7, and 5 ng mL^−1 IL-15 ([sequence] Technologies) and seeded at 1.0×10^6 cells mL^−1. Until transfection 48 hours later, the cells were cultured at 37° C., in 5% CO2 incubators.
Donor templates comprising site-specific homology arms, respective promoter, and respective gene (GFP or Hu19 scFv-CD8a-CD28-CD3ζ CAR) were amplified from corresponding pTwist Ampicillin high-copy plasmids (Twist Bioscience) using homology arms-specific PCR primers. […] Purified HDR templates were collected and quantified on NanoDrop One Microvolume UV-Vis Spectrophotometer (ThermoFisher Scientific). […] HDR templates were collected, diluted, and concentrations quantified using Qubit dsDNA HS Assay Kit (ThermoFisher Scientific). […]

[2] = system: primary Pan-T donors; settings: primary Pan-T cells, RNP + ssODN, M3814 for 24 hours after transfection
Procedure: The targeted ssODN template (Table 11) was transfected with RNPs in three primary Pan-T donors. Cell pools were harvested post recovery for genotypic evaluation (i.e. modification incorporation via NGS) and also functional analysis (FACS staining).
Conditions were the same as Example 1, and in addition after transfection the cells were treated with the HDR enhancer M3814 for 24 hours to block the NHEJ pathway and 5 thereby increase the incorporation of the ssODN at the on-target side.

[3] = system: PDCD1, TIM3, LAG3, TIG1T, CTLA4, PTPN6, PTPN11 and CD247; test: gNA screen: INDEL frequency at eight loci in Jurkat T-cell leukemia cell line; assay type: cell-based, human; settings: gNAs adjacent to all YTTN PAM variants
Procedure: Ribonucleoprotein complexes (RNPs) were generated by incubating respective guide nucleic acids (gNAs) with MAD7 in the molar ratio of 3:2 gNA: MAD7 for 15 minutes at room temperature immediately before transfection. For Jurkat experiments, the RNP complexes were generated by mixing the respective gNA ([…]), MAD7 ([…]), and nuclease-free water, unless otherwise stated.
Lonza 4D Nucleofector with Shuttle unit (V4SC-2960 Nucleocuvette Strips) was used for transfection, following the manufacturer's instructions. […]
Extracted genomic DNA was quantified using the NanoDrop (ThermoFisher Scientific). […] The DNA was eluted from the beads with nuclease-free water and the size of the purified amplicons analyzed on a 2% agarose E-gel using the E-gel electrophoresis system (ThermoFisher Scientific). In the second PCR, unique pairs of Illumina-compatible indexes (Nextera XT Index Kit v2) were added to the amplicons using the KAPA HiFi HotStart Ready Mix (Roche). […] Sizes of the purified DNA fragments were validated on a 2% agarose gel using the E-gel electrophoresis system (ThermoFisher Scientific), quantified using Qubit dsDNA HS Assay Kit (Thermo Fisher) and then pooled in equimolar concentrations. […] The final library was sequenced on Illumina MiSeq System using the MiSeq Reagent Kit v.2 (300 cycles, […], paired-end reads). […]

[4] = system: AAVS1 locus; test: INDEL frequency at the AAVS1 locus in Jurkat cells; assay type: cell-based, human; settings: MAD7 RNP
Text: The Jurkat T-cell leukemia cell line was used to evaluate the transgene insertion and expression efficiency using CRISPR-MAD7 RNP complexes. […] Specifically. […] Dark grey bars represent mean INDEL frequency using crAAVS1. Light grey bars represent mean modification frequency using crIDTneg (IDT). The HDR inserts comprised eight promoters (Table 4) differing in both size and promoter strength to drive GFP expression (FIG. 21). […] Specifically. […] HDR templates consisting of eight different promoters and flanked with symmetric homology arms of 500 base pairs in the amount of 0.5 μg μL^−1 were used. Size of promoters in base pairs: CMV, 1400; SCP, 970; CMVe-SCP, 1270; CMVmax, 1830; JET. 1100; CAG, 2600; PGK, 1410; EF-1a, 2090. Dark grey bars and circles present mean insertion frequency and cell viability using crAAVS1. Light grey bars represent mean insertion frequency and cell viability using crIDTneg (IDT).

[5] = system: CD247; test: gNA validation: frameshift (ORF disruption) frequency, CD247; assay type: cell-based, human; settings: Jurkat, CRISPResso2 ORF analysis
Procedure: Initial quality assessment of the obtained reads was performed with FastQC36. The sequencing data were aligned and analyzed with the CRISPResso2 software, using CRISPRessoBatch command with the parameters—cleavage_offset 1—quantification_window_size 10—quantification_window_center 1—expand_ambiguous_alignments for the INDEL frequency analysis. For the ORF disruption analysis, CRISPRessoBatch command with the parameters—cleavage_offset 1—coding_seq <EXON_SEQ>—quantification_window_size 0—quantification_window_center 1—expand_ambiguous_alignments was used. Modification rates from the CRISPResso2 software output were analyzed in Excel.
(§1) High-efficiency gNAs identified in our initial analysis were validated by assaying INDEL frequency for the top three or five gNAs for each of the selected immunologically relevant genes (FIG. 15). […] Alternating grey and white zones on the plot represent groups of three to five high-efficiency gNAs per locus. […] Using the CRISPresso2 software, the degree of open reading frame (ORF) disruption for each of the validated gNAs was estimated (FIG. 15). In addition, for four high-efficiency gNAs targeting three different exons at the PDCD1 locus, surface expression of the PDCD1 protein was measured by flow cytometry 4, 7, and 11 days post-transfection (data not shown).
Average fraction of INDELs leading to frameshifts (dashed line) is approx. 66%. […]

[6] = system: PDCD1 protein; test: Surface expression of the PDCD1 protein by flow cytometry in Jurkat cells; assay type: cell-based, human; settings: flow cytometry 4, 7 and 11 days post-transfection, crPDCD1_2 value at day 4, same at day 11
Procedure: For detection of PDCD1 knock-out efficiency, approx. 250,000 Jurkat cells per sample were transferred onto 96-well V-bottom cell culture plates and assessed following a series of consecutive washing and staining steps. The first step included centrifuging the cells at 300 g for 5 minutes at 4° C., and discarding the supernatant. Afterwards, the cells were stained using 100 μL Cell Staining Buffer (Biolegend) with APC/Cyanine7 anti-human CD279 (PD-1) antibody (1:100: Biolegend) and incubated for 30 minutes at 4° C., in the dark. The cells were then centrifuged at 300 g for 5 minutes at 4° C., and the supernatant discarded. The next step included two repeats of centrifugation at 300 g for 5 minutes at 4° C., supernatant removal, and cell washing in 150 μL ice-cold Cell Staining Buffer (Biolegend). In the final step, the cells were re-suspended in 100 μL Cell Staining Buffer for the flow cytometry measurements (excitation: red laser; emission: […]).
as §1

[7] = system: predicted off-target sites; test: INDEL frequency at predicted off-target sites (CasOFFinder, targeted deep sequencing) in Jurkat cells; assay type: cell-based, human; settings: crPDCD1: <=4 mismatches, remaining gNAs <=3 mismatches, vs MOCK, Pairwise T-test
Procedure: Another consideration for selecting gNAs is the potential for off-target cleavage events. The list of validated gNAs was analyzed using the CasOFFinder software to predict potential off-target editing sites in the genome with up to four mismatches between the gNA and the target DNA sequence. Using the Bioconductor R packages, the predicted off-target sites were matched with the human gene database, and those sites that targeted exons and introns within the genes were extracted. Afterwards, the degree of editing activity at these sites was examined by targeted next-generation sequencing, more specifically, at 25 predicted off-target sites for the top-two PDCD1 gNAs, i.e., crPDCD1_1 and crPDCD1_2. […] INDEL frequency at 43 putative off-target sites with up to three mismatches between gNA and target DNA sequence were assayed for the top-two gNAs targeting seven remaining genes (i.e., TIM3, LAG3, TIG1T, CTLA4, PTPN6, PTPN11, and CD247; spacer sequences in Table 5). […] Specifically. FIGS. 18-19 show INDEL frequency of MAD7 (n=3; Mean±SD) in T-cell leukemic cell line at predicted off-target sites analyzed by targeted deep sequencing. For crPDCD1. INDEL frequency was analyzed at the putative off-target editing sites with ≤4 mismatches between the gNA and target DNA sequence, and with ≤3 mismatches on the remaining gNAs.

Compound: COc1ccc([C@@H](O)c2cc(-c3ncnc4cc(N5CCOCC5)ccc34)c(F)cc2Cl)nn1 [M3814]
- more efficient CAR insertion than other experiments [1]: ~5 times
- increase in perfect HDR [2]: 1.5 fold

Compound: MAD7: type V-A Cas nuclease, SEQ ID NO: 37
- editing by PAM motif [3]: editing with all eight combinations of YTTN PAM

Compound: crAAVS1: highly active gNA targeting the AAVS1 safe-harbor locus, spacer sequence in Table 5 (guide TTAGGATGGCCTTCTCCGACG; spacer only, further chemistry not given here)
- INDEL frequency at the AAVS1 locus [4]: highly active

Compound: crCD247_4: validated high-efficiency gNA, CD247 (guide CTAGCAGAGAAGGAAGAACCC; spacer only, further chemistry not given here)
- frameshifts frequency (fraction of frameshift to INDEL) [5]: 97%

Compound: crPDCD1_2: gNA targeting the PDCD1 gene at the extracellular domain of the protein (guide TCTGCAGGGACAATAGGAGCC; spacer only, further chemistry not given here)
- surface expression of the PDCD1 protein [6]: 10%
- INDEL frequency at predicted off-target sites [7]: low-level off-target activity

Compound: poly-L-glutamic acid [PGA]
- CAR insertion efficiency, treatment with PGA compared to without PGA ([1]; primary T-cells, P<=0.05, data not shown): higher

— patent publication US20250179481A1, “COMPOSITIONS AND METHODS FOR TARGETING, EDITING, OR MODIFYING GENES” (Celyntra Therapeutics SA, priority 2021, published 2025)
